Measured values published in ChEMBL document CHEMBL5579895, “Discovery of TYRA-300: First Oral Selective FGFR3 Inhibitor for the Treatment of Urothelial Cancers and Achondroplasia” (J Med Chem, 2024).
pIC50: −log10 of the molar value. Activity calls are given as the source filed them. No cut-off for these calls is given here.

How the values were obtained:
[1] = Inhibition of recombinant FGFR3/BAIAP2L1 (unknown origin) transduced in mouse BaF3 cells incubated for 48 hrs by Cell Titer Glo assay; format: cell-based; settings: BaF3, 48 h
[2] = Inhibition of recombinant BCR/FGFR1 (unknown origin) transduced in mouse BaF3 cells incubated for 48 hrs by Cell Titer Glo assay; format: cell-based; settings: BaF3, 48 h
[3] = Inhibition of recombinant BCR/FGFR2 (unknown origin) transduced in mouse BaF3 cells incubated for 48 hrs by Cell Titer Glo assay; format: cell-based; settings: BaF3, 48 h
[4] = Inhibition of recombinant BCR/FGFR4 (unknown origin) transduced in mouse BaF3 cells incubated for 48 hrs by Cell Titer Glo assay; format: cell-based; settings: BaF3, 48 h
[5] = Stability in human liver microsomes assessed as half life at 1 uM incubated upto 180 mins by LC-MS/MS analysis; format: ADME, Microsome
[6] = Stability in human hepatocytes assessed as half life at 1 uM incubated upto 180 mins by LC-MS/MS analysis; format: ADME, cell-based, Hepatocyte
RT112/84 [7] = experiment: cells; format: functional, cell-based; settings: Homo sapiens
Description: Inhibition of cell viability in human RT112/84 cells harboring FGFR3/TACC3 fusion incubated for 72 to 120 hrs by Cell Titer Glo assay

RT112/84 [8] = experiment: cells; format: functional, cell-based; settings: Homo sapiens; remark: listed apart in the source
Description: Inhibition of cell viability in human RT112/84 cells harboring FGFR3 V555M mutant incubated for 72 to 120 hrs by Cell Titer Glo assay

[9] = Inhibition of cell viability in human UMUC14 cells harboring FGFR3 S249C mutant incubated for 72 to 120 hrs by Cell Titer Glo assay; format: functional, cell-based
RT-4 = experiment: Inhibition of cell viability in human RT-4 cells harboring FGFR3/TACC3 fusion incubated for 72 to 120 hrs by Cell Titer Glo assay; format: functional, cell-based
KG-1 = experiment: Inhibition of cell viability in human KG-1 cells harboring FGFR1-fusion incubated for 72 to 120 hrs by Cell Titer Glo assay; format: functional, cell-based
DMS-114 = experiment: Inhibition of cell viability in human DMS-114 cells harboring FGFR1-amplification incubated for 72 to 120 hrs by Cell Titer Glo assay; format: functional, cell-based
RT112/84 [10] = experiment: Antitumor activity against human RT112/84 cells harboring FGFR3/TACC3 fusion xenografted in Balb/c nude mouse model at 15 mg/kg, po bid treated for 21 days relative to control; format: functional; settings: for inhibition in vivo at 15 mg/kg: RT112/84, 504 h, time 21 day, read-out: TGI
[11] = Inhibition of cell viability in human UMUC14 cells harboring FGFR3 V555M mutant incubated for 72 to 120 hrs by Cell Titer Glo assay; format: functional, cell-based
RT112/84 [12] = experiment: animal or person; format: functional, Homo sapiens; settings: Mus musculus, RT112/84, 504 h, route po, time 21 day, read-out: TGI
Description: Antitumor activity against human RT112/84 cells harboring FGFR3/TACC3 fusion xenografted in Balb/c nude mouse model at 12.5 mg/kg, po bid treated for 21 days relative to control

RT112/84 [13] = experiment: animal or person; format: functional, Homo sapiens; settings: Mus musculus, RT112/84, 504 h, route po, time 21 day, read-out: TGI; remark: listed apart in the source
Description: Antitumor activity against human RT112/84 cells harboring FGFR3 V555M mutant xenografted in Balb/c nude mouse model at 12.5 mg/kg, po bid treated for 21 days relative to control

Row | SMILES | pIC50 [1] | pIC50 [2] | pIC50 [3] | pIC50 [4] | half-life at 1 µM [5] | half-life at 1 µM [6] | pIC50 (RT112/84 [7]) | pIC50 (RT112/84 [8]) | pIC50 [9] | pIC50 (RT-4) | pIC50 (KG-1) | pIC50 (DMS-114) | inhibition in vivo at 15 mg/kg (RT112/84 [10]) | Activity (RT112/84 [10]; time 21.0 day) | pIC50 [11] | inhibition in vivo at 12.5 mg/kg (RT112/84 [12]) | inhibition in vivo at 12.5 mg/kg (RT112/84 [13])
1 | C[C@@H](Oc1ccc2[nH]nc(-c3ccc(N4CCN(C)CC4)nc3)c2c1)c1c(Cl)cncc1Cl | 8.44 | 7.34 | 7.55 | 7.57 | 5 min | – | – | – | – | – | – | – | – | – | – | – | –
2 | C[C@@H](Oc1ccc2[nH]nc(-c3ccc(N4CCN(C(=O)N(C)C)CC4)nc3)c2c1)c1c(Cl)cncc1Cl | 7.89 | 6.54 | 6.60 | 6.51 | 1.1 min | – | – | – | – | – | – | – | – | – | – | – | –
3 | C[C@@H](Oc1ccc2[nH]nc(-c3ccc(N4CC5(C4)CN(S(C)(=O)=O)C5)nc3)c2c1)c1c(Cl)cnnc1Cl | 8.07 | 6.75 | 7.17 | – | – | 18 min | 7.42 | 7.05 | 5.80 | 6.84 | 6.71 | 5.52 | – | – | – | – | –
4 | C[C@@H](Oc1ccc2[nH]nc(-c3ccc(N4CC5(CCS(=O)(=O)C5)C4)nc3)c2c1)c1c(Cl)cncc1Cl | 8.49 | 6.98 | 6.95 | 6.97 | – | 102 min | 8.04 | 7.66 | 8.00 | – | 7.08 | – | 56% | – | – | – | –
5 | C[C@@H](Oc1ccc2[nH]nc(-c3ccc(N4CCN(S(C)(=O)=O)CC4)nc3)c2c1)c1c(Cl)cncc1Cl | 8.24 | 6.82 | 6.98 | 6.81 | 9.6 min | – | – | – | – | – | – | – | – | – | – | – | –
6 | COC(=O)N1CCN(c2ccc(-c3n[nH]c4ccc(O[C@H](C)c5c(Cl)cncc5Cl)cc34)cn2)CC1 | 7.42 | 6.25 | 6.41 | 6.23 | 8.5 min | – | – | – | – | – | – | – | – | – | – | – | –
7 | CCC(=O)N1CCN(c2ccc(-c3n[nH]c4ccc(O[C@H](C)c5c(Cl)cncc5Cl)cc34)cn2)CC1 | 8.22 | 6.95 | – | – | 4.7 min | – | – | – | – | – | – | – | – | – | – | – | –
8 | C[C@@H](Oc1ccc2[nH]nc(-c3ccc(N4CC5(CCN(S(C)(=O)=O)C5)C4)nc3)c2c1)c1c(Cl)cncc1Cl | 7.80 | 6.40 | 6.65 | 6.75 | – | > 100 min | 7.89 | 7.44 | 7.89 | – | 6.69 | – | 22% | – | – | – | –
9 | C[C@@H](Oc1ccc2[nH]nc(-c3ccc(N4CCN(S(C)(=O)=O)CC4=O)nc3)c2c1)c1c(Cl)cncc1Cl | 7.32 | 6.19 | 6.39 | 6.39 | 3.3 min | – | – | – | – | – | – | – | – | – | – | – | –
10 | C[C@@H](Oc1ccc2[nH]nc(-c3ccc(C4CCN(S(C)(=O)=O)CC4)nc3)c2c1)c1c(Cl)cncc1Cl | 8.28 | 7.00 | – | – | 15 min | – | – | – | – | – | – | – | – | – | – | – | –
11 | C[C@@H](Oc1ccc2[nH]nc(-c3ccc(N4CC5CC(C4)N5S(C)(=O)=O)nc3)c2c1)c1c(Cl)cncc1Cl | 7.64 | 6.47 | – | – | 15 min | – | – | – | – | – | – | – | – | – | – | – | –
12 | C[C@@H](Oc1ccc2[nH]nc(-c3ccc(N4CC5(CCS(=O)(=O)CC5)C4)nc3)c2c1)c1c(Cl)cncc1Cl | 7.96 | 6.89 | 6.88 | 6.77 | – | 86 min | 8.08 | 7.77 | 8.00 | – | 6.48 | – | 76% | – | – | – | –
13 | C[C@@H](Oc1ccc2[nH]nc(-c3cnc(N4CC5(C4)CN(S(C)(=O)=O)C5)nc3)c2c1)c1c(Cl)cncc1Cl | 7.52 | 6.06 | 6.31 | 6.89 | – | 132 min | – | – | – | – | – | – | – | inactive | – | – | –
14 | C[C@@H](Oc1ccc2[nH]nc(-c3ccc(N4CCN(C(=O)N5CCN(C)CC5)CC4)nc3)c2c1)c1c(Cl)cncc1Cl | 8.19 | 6.95 | 6.94 | 6.83 | 3.5 min | – | – | – | – | – | – | – | – | – | – | – | –
15 | C[C@@H](Oc1ccc2[nH]nc(-c3ccc(N4CCN(S(C)(=O)=O)C5(CC5)C4)nc3)c2c1)c1c(Cl)cncc1Cl | 7.92 | 6.76 | – | – | 4.8 min | – | – | – | – | – | – | – | – | – | – | – | –
16 | C[C@@H](Oc1ccc2[nH]nc(-c3ccc(N4CCOCC4)nc3)c2c1)c1c(Cl)cncc1Cl | 7.44 | 6.29 | 6.50 | 5.91 | 5.5 min | – | – | – | – | – | – | – | – | – | – | – | –
17 | COc1cc(OC)cc(N(CCNC(C)C)c2ccc3ncc(-c4cnn(C)c4)nc3c2)c1 [ERDAFITINIB] | 8.59 | 8.28 | 8.42 | 7.96 | – | – | 8.44 | 5.67 | 8.42 | 8.36 | 8.68 | 7.96 | – | – | < 5.52 | 73% | 12%
18 | C[C@@H](Oc1ccc2[nH]nc(-c3ccc(N4CC5(C4)CN(S(C)(=O)=O)C5)nn3)c2c1)c1c(Cl)cncc1Cl | 8.06 | 6.69 | 6.65 | 6.56 | – | > 100 min | 7.57 | – | 7.47 | – | 6.62 | – | – | – | – | – | –
19 | C[C@@H](Oc1ccc2[nH]nc(-c3ccc(N4CC5(CCN(S(C)(=O)=O)CC5)C4)nc3)c2c1)c1c(Cl)cncc1Cl | 7.85 | 6.67 | 6.90 | 6.83 | – | > 100 min | 7.82 | 7.38 | 7.82 | – | 5.80 | – | 64% | – | – | – | –
20 | C[C@@H](Oc1ccc2[nH]nc(-c3ccc(N4CC5(CCCS(=O)(=O)C5)C4)nc3)c2c1)c1c(Cl)cncc1Cl | 8.60 | 7.21 | 7.48 | 7.77 | – | 85 min | – | – | – | – | – | – | – | – | – | – | –
21 | C[C@@H](Oc1ccc2[nH]nc(-c3ccc(N4CC5(CCCN(S(C)(=O)=O)C5)C4)nc3)c2c1)c1c(Cl)cncc1Cl | 8.22 | 7.03 | 7.21 | 7.41 | – | 40 min | – | – | – | – | – | – | – | – | – | – | –
22 | C[C@@H](Oc1ccc2[nH]nc(-c3ccc(N4CCC5(CC4)CN(C)CC(=O)N5)nc3)c2c1)c1c(Cl)cncc1Cl | 7.89 | 6.68 | 6.81 | 6.53 | – | 36 min | – | – | – | – | – | – | – | – | – | – | –
23 | C[C@@H](Oc1ccc2[nH]nc(-c3ccc(N4CCC5(CC4)CCS(=O)(=O)C5)nc3)c2c1)c1c(Cl)cncc1Cl | 7.85 | 6.37 | 6.71 | 6.24 | – | 88 min | – | – | – | – | – | – | – | – | – | – | –
24 | C[C@@H](Oc1ccc2[nH]nc(-c3ccc(N4CC5(CCN5S(C)(=O)=O)C4)nc3)c2c1)c1c(Cl)cncc1Cl | 7.74 | 6.54 | 6.88 | 6.64 | – | 49 min | – | – | – | – | – | – | – | – | – | – | –
